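Compound exposure: 48 hours, 5 concentrations, 96-well plates. Here, GI50 denotes the concentration required for 50% inhibition of growth.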 The source made the active and inactive calls. No stated cut-off is given here; in the data, active = GI50 up to about 1.1 µM and inactive = higher.
How the values were obtained:
Test in all cases: inhibition of tumour cell growth, NCI panel, 48 h
SW-620 = test system: SW-620
SNB-19 = test system: SNB-19
KM12 = test system: KM12
NCI/ADR-RES = test system: NCI/ADR-RES
U-251 = test system: U-251
HCT-15 = test system: HCT-15
SNB-75 = test system: SNB-75
786-0 = test system: 786-0
ACHN = test system: ACHN
OVCAR-4 = test system: OVCAR-4
Malme-3M = test system: Malme-3M
Hs-578T = test system: Hs-578T
A549 = test system: A549
SN12C = test system: SN12C
MOLT-4 = test system: MOLT-4
MDA-MB-231 = test system: MDA-MB-231
CCRF-CEM = test system: CCRF-CEM
HOP-62 = test system: HOP-62
NCI-H460 = test system: NCI-H460
OVCAR-5 = test system: OVCAR-5

Measured: GI50

O=C(O)/C=C/c1ccc(Oc2ccccc2C(=O)O)o1
> 10 µM: HCT-15
inactive: SW-620 > 10 µM | SNB-19 > 10 µM | KM12 > 10 µM | NCI/ADR-RES > 10 µM | U-251 > 10 µM | SNB-75 > 10 µM | 786-0 > 10 µM | ACHN > 10 µM | OVCAR-4 > 10 µM | Malme-3M > 10 µM | Hs-578T > 10 µM | A549 > 10 µM | SN12C > 10 µM | MOLT-4 > 10 µM | MDA-MB-231 > 10 µM | CCRF-CEM > 10 µM | HOP-62 > 10 µM

O=C(Nc1ccc(N=C=S)cc1Cl)c1cc(Br)cc(Br)c1O
16.4 µM: HCT-15
active: SN12C < 0.01 µM
inactive: SW-620 27.3 µM | SNB-19 24.6 µM | KM12 27 µM | NCI/ADR-RES 24.2 µM | NCI-H460 32.6 µM | U-251 22.2 µM | OVCAR-5 23.7 µM | SNB-75 31.1 µM | 786-0 26.3 µM | ACHN 27 µM | OVCAR-4 27.1 µM | Malme-3M 37.8 µM | Hs-578T 25.6 µM | A549 25.8 µM | MOLT-4 24.2 µM | MDA-MB-231 21.5 µM | HOP-62 30.6 µM

Cc1ccc(N/N=C/C2=CC(C)(C)C(C#N)(C#N)C(O)=C2C#N)cc1
inactive: SW-620 24.8 µM | SNB-19 86.5 µM | KM12 32.4 µM | NCI/ADR-RES 56 µM | NCI-H460 24.6 µM | OVCAR-5 > 100 µM | SNB-75 45.5 µM | 786-0 66.4 µM | ACHN 45.5 µM | OVCAR-4 96.8 µM | Malme-3M > 100 µM | Hs-578T > 100 µM | A549 36.5 µM | SN12C > 100 µM | MOLT-4 30.5 µM | MDA-MB-231 44.6 µM | CCRF-CEM 24.5 µM | HOP-62 78.3 µM

O=[N+]([O-])/C(C(Cl)=C(Cl)Cl)=C(/Nc1ccccc1)SCc1ccccc1
inactive: SW-620 26.7 µM | SNB-19 25.2 µM | KM12 15.3 µM | NCI/ADR-RES 16.2 µM | NCI-H460 19.8 µM | U-251 20.1 µM | OVCAR-5 20 µM | 786-0 17.3 µM | ACHN 28.3 µM | OVCAR-4 24.7 µM | Malme-3M 16.4 µM | Hs-578T 44.1 µM | A549 17.8 µM | SN12C 22.4 µM | MOLT-4 17 µM | MDA-MB-231 19.9 µM | CCRF-CEM 15 µM | HOP-62 19.1 µM
14.4 µM: HCT-15

C[n+]1c2ccccc2n2c3ccccc3c(NCc3ccco3)c(C#N)c21
1.05 µM: HCT-15
active: SW-620 0.64 µM | NCI-H460 1.1 µM | MOLT-4 0.984 µM
inactive: SNB-19 3.11 µM | KM12 2.79 µM | NCI/ADR-RES 2.2 µM | U-251 2 µM | OVCAR-5 2.12 µM | SNB-75 2.02 µM | 786-0 1.51 µM | ACHN 1.46 µM | OVCAR-4 2.82 µM | Malme-3M 2.43 µM | Hs-578T 2.96 µM | A549 3.15 µM | SN12C 1.23 µM | MDA-MB-231 2.21 µM | HOP-62 1.46 µM

CCOC(=O)c1cc(C)nc2c1c(=O)n(-c1ccccc1)c(=O)n2CCCCN1CCN(c2ccccc2)CC1
inactive: SW-620 > 100 µM | KM12 61.8 µM | NCI/ADR-RES > 100 µM | U-251 > 100 µM | OVCAR-5 > 100 µM | SNB-75 > 100 µM | 786-0 73.1 µM | ACHN 58.1 µM | OVCAR-4 34 µM | Malme-3M > 100 µM | Hs-578T > 100 µM | A549 > 100 µM | SN12C 49.9 µM | MOLT-4 24.5 µM | MDA-MB-231 48.1 µM | HOP-62 > 100 µM
49.3 µM: HCT-15

Cc1ccc(S(=O)(=O)NC(=O)NCC(=O)NCC(=O)O)cc1
inactive: SW-620 > 100 µM | SNB-19 > 100 µM | KM12 > 100 µM | NCI/ADR-RES > 100 µM | NCI-H460 > 100 µM | U-251 > 100 µM | OVCAR-5 > 100 µM | SNB-75 > 100 µM | 786-0 > 100 µM | ACHN > 100 µM | OVCAR-4 > 100 µM | Malme-3M > 100 µM | Hs-578T > 100 µM | A549 > 100 µM | MOLT-4 > 100 µM | MDA-MB-231 > 100 µM | CCRF-CEM > 100 µM
> 100 µM: HCT-15

CC(C)C(=O)/C=C/S/C=C/C(=O)C(C)C
3.2 µM: HCT-15
inactive: SW-620 3.33 µM | SNB-19 28.3 µM | KM12 30.3 µM | NCI/ADR-RES 2.83 µM | NCI-H460 10.8 µM | U-251 18.6 µM | OVCAR-5 5.27 µM | SNB-75 45.1 µM | 786-0 2.53 µM | ACHN 2.24 µM | OVCAR-4 6.17 µM | Malme-3M 6.7 µM | Hs-578T 21.6 µM | A549 32.3 µM | SN12C 14.2 µM | MDA-MB-231 3.7 µM | HOP-62 21.2 µM

Source: ChEMBL document CHEMBL1201862, “PubChem BioAssay data set” (2004)
